Patent US20240011027A1, “METHODS AND COMPOSITIONS FOR RESTORING STMN2 LEVELS” (President and Fellows of Harvard College, priority 2020, published 2024)
Where a SMILES comes first, the peptide text is derived from it. The star is where a group is joined. Cbz = O=C(OCc1ccccc1)*

Legend:
Format in all cases: cell-based, human
[1] = tested on: STMN2; assay: STMN2 mRNA expression in HUES3, IG2 (Stmn2 KO) and CN7 (cryptic exon deletion) lines stressed with MG132; details: 1 uM for 24 hours
Procedure: Three cell lines, HUES3, IG2 (Stmn2 KO), and CN7 (cryptic exon deletion) were treated with normal media or media+1 uM MG132 for 24 hours to stress the cells. In HUES3 cells, the stressed condition had 52% STMN2 mRNA expression compared to the unstressed condition. In IG2 (Stmn2 KO) condition, unstressed cells had 13% expression, and when stressed, expression increased to 42%. […] It was shown that if several exons are knocked out the expression goes down, but if the TDP-43 binding site is removed, expression goes way up.

[2] = tested on: STMN2; assay: qRT-PCR of STMN2 expression in hMNs treated with proteasome inhibitors; details: short-term high dose or long-term low dose
Procedure: (§1) To determine what happened to TDP-43 after proteasome inhibition, TDP-43 levels were examined by immunoblot analysis in both the detergent-soluble and detergent-insoluble fractions. […] Finally, STMN2 levels in neurons treated with either a short-term high dose or a long-term low dose of MG-132 were probed.
Total RNA was isolated from d10 MNs for RNA-Seq experiments and validation assays using Trizol LS (Invitrogen) according to manufacturer's instructions. 500 μL were added per well of the 24-well cultures. A total of 300-1000 ng of total RNA was used to synthesize cDNA by reverse transcription according to the iSCRIPT kit (Bio-rad). Quantitative RT-PCR (qRT-PCR) was then performed using SYBR green (Bio-Rad) and the iCycler system (Bio-rad). Quantitative levels for all genes assayed were normalized using GAPDH expression. […] All primer sequences are available upon request. For next-generation RNA sequencing (RNA-Seq), at least two technical replicas per siRNA sample or AAVS1-TDP43 genotype were included in the analyses. After RNA extraction, samples with RNA integrity numbers (RIN) above 7.5, determined by a bioAnalyzer, were used for library preparation. […] All FASTQ files were analyzed using the bcbioRNASeq workflow and toolchain (90). […]

[3] = tested on: STMN2 RNA; assay: qRT-PCR of full-length STMN2 after proteasome inhibition with MG-132 in patient's motor neurons; details: MG-132 (1 uM); patient's neurons
Excerpt: It was established that ASO (SJ+94) and ASO (SJ-1) suppressed cryptic splicing of STMN2 and restored full length STMN2 RNA in the patient's motor neurons when there is a reduction in nuclear TDP-43. […] Post-mortem tissue studies have shown that TDP-43 mis-localization and its aggregation in cytoplasm is a hallmark of sporadic ALS. Several groups have reported cytoplasmic aggregation of TDP-43 akin to that observed in post-mortem tissue of sporadic ALS patients occurs in response to pharmacological inhibition of the proteasome (1, 4).

[4] = tested on: TDP-43; assay: immunoblot of TDP-43 in detergent-soluble (RIPA) and detergent-insoluble (UREA) fractions after MG-132
Procedure: as §1
For analysis of TDP-43 and STMN2 protein expression levels, d10 MNs were lysed in RIPA buffer (150 mM Sodium Chloride; 1% Triton X-100; 0.5% sodium deoxycholate; 0.1% SDS; 50 mM Tris pH 8.0) containing protease and phosphatase inhibitors (Roche) for 20 min on ice, and centrifuged at high speed. 200 μL of RIPA buffer per well of 24-well culture were routinely used, which yielded ˜20 μg of total protein as determined by BCA (Thermo Scientific). After two washes with RIPA buffer, insoluble pellets were resuspended in 200 μl of UREA buffer (Bio-Rad). For immunoblot assays 2-3 μg of total protein were separated by SDS-PAGE (BioRad), transferred to PDVF membranes (BioRad) and probed with antibodies against TDP-43 (1:1000, ProteinTech Group), GAPDH (1:1000, Millipore) and STMN2 (1:3000, Novus). Insoluble pellets were loaded based on protein concentration of correspondent RIPA-soluble counterparts. […] GAPDH levels were used to normalized each sample, and LiCor software was used to quantitate protein band signal.

[5] = tested on: STMN2 cryptic exon; assay: RT-PCR detection of transcripts containing the STMN2 cryptic exon in hMNs treated with proteasome inhibitors
Procedure: It was then asked if cryptic exon inclusion could be contributing to decreased STMN2 levels in hMNs after proteasome inhibition. To accomplish this goal, an RT-PCR assay was developed to detect transcripts containing the cryptic exon (FIG. 5F). […] Total RNA was isolated from neurons using RNeasy Mini Kit (Qiagen) according to manufacturer's instructions. A total of 300-1000 ng of total RNA was used to synthesize cDNA by reverse transcription according to the iSCRIPT kit (Bio-rad). RT-PCR was then performed using one cryptic exon-specific primer and then analyzed using the Agilent 2200 Tapestation.

[6] = tested on: proteasome; assay: proteasome activity assay in hMNs treated with MG-132; details: overnight 1 μM treatment
[7] = tested on: TDP-43; assay: TDP-43 localization by immunostaining, Pearson's correlation with DAPI, after MG-132 pulse-chase
Procedure: For immunofluorescence, cells were fixed with ice-cold 4% PFA for 15 minutes at 4° C., permeabilized with 0.2% Triton-X in lx PBS for 45 minutes and blocked with 10% donkey serum in lx PBS-T (0.1% Tween-20) for 1 hour. Cells were then incubated overnight at 4° C. with primary antibody (diluted in blocking solution). At least 4 washes (5 min incubation each) with 1×PBS-T were carried out, before incubating the cells with secondary antibodies for 1 hour at room temperature (diluted in blocking solution). Nuclei were stained with DAPI. The following antibodies were used in this study: Hb9 (1:100, DSHB, MNR2 81.5C10-c), TUJ1 (1:1000, Sigma, T2200), MAP2 (1:10000, Abcam ab5392), Ki67 (1:400, Abcam, ab833), GFP (1:500, Life Technologies™, A10262), Islet1 (1:500, Abcam ab20670), TDP-43 (1:500, ProteinTech Group), STMN2 (1:4000, Novus), AlexaFluor™ 647-Phalloidin (1:200,). Secondary antibodies used (488, 555, 594, and 647) were AlexaFluor™ (1:1000, Life Technologies™) and DyLight (1:500, Jackson ImmunoResearch Laboratories). Micrographs were analyzed using FIJI software to determine the correlation coefficient.

Q: What does the source list for `CC(C)C[C@@H](C=O)NC(=O)[C@H](CC(C)C)NC(=O)[C@H](CC(C)C)NC(=O)OCc1ccccc1` [MG-132] (Cbz-Leu-Leu-Leu-aldehyde)?
A: STMN2 mRNA expression ([1]; CN7 (Cryptic Exon Deletion) cells, unstressed 729%): 473%; STMN2 mRNA expression compared to the unstressed condition ([1]; HUES3 cells): 52%; STMN2 mRNA expression ([1]; IG2 (Stmn2 KO) cells, unstressed 13%): 42%; STMN2 mRNA levels [2]: significant decreases; STMN2 expression after proteasome inhibition [3]: decreased STMN2 expression; TDP-43 levels in soluble lysates ([4]; control neurons treated with a low dose): significantly decreased TDP-43 levels; TDP-43 in UREA (insoluble) fraction ([4]; proteasome inhibition): triggers TDP-43 to become insoluble; transcripts containing the STMN2 cryptic exon (PCR assay) [5]: presence of transcripts containing the STMN2 cryptic exon; proteasome activity [6]: less than 10 % of normal activity; TDP-43 staining in the nucleus ([7]; 24 hour 1 μM pulse, hMNs): greatly diminished; TDP-43 staining following washout ([7]; after 24 hour 1 μM pulse and washout): indistinguishable to unchallenged neurons after 4 days
